{"source": "patent US20250302051A1", "about": "“COMPOSITIONS WITH NANOPLATELET OXIDES OR HYDROXIDES AND METHODS OF PREPARING AND USING SAME” (Aqua Resources Corporation, priority 2024, published 2025)", "key": {"MRSA (S. aureus)": {"system": "MRSA (S. aureus)", "assay": "Nanoplatelet composition vs antibiotic parallel test, MRSA", "format": "cell-based, Staphylococcus aureus", "procedure": "The nanoplatelet composition achieved total mitigation of MRSA from a 7 log pathogen population (10 million bacteria per mL) to zero in 3 hours. Levoflaxin, a commonly administered antibiotic used for treating MRSA, was tested at clinical doses and is shown as the dashed line. At various concentrations, the nanoplatelet composition eliminated MRSA more completely than levoflaxin after 24 hours with no rebound."}, "CRE (K. pneumoniae)": {"system": "CRE (K. pneumoniae)", "assay": "Nanoplatelet composition vs antibiotic parallel test, CRE K. pneumoniae", "format": "cell-based"}, "CRE (E. coli)": {"system": "CRE (E. coli)", "assay": "Nanoplatelet composition vs antibiotic parallel test, CRE E. coli", "format": "cell-based", "conditions": "within 24 hours; colistin 2 μg/mL; FIG. 8"}, "S. aureus (VISA)": {"system": "S. aureus (VISA)", "assay": "Nanoplatelet composition vs antibiotic parallel test, VISA", "format": "cell-based"}, "B. cereus (ATCC 14579)": {"system": "B. cereus (ATCC 14579)", "assay": "Nanoplatelet composition vs antibiotic parallel test, B. cereus", "format": "cell-based"}}, "data": [{"compound": "C[C@H]1COc2c(N3CCN(C)CC3)c(F)cc3c(=O)c(C(=O)O)cn1c23", "note": "[Levoflaxin]", "values": [{"measurement": "Log Kill", "setting": "MRSA (S. aureus)", "value": 4.5, "unit": "Log"}]}, {"compound": "CN(C)c1cc(NC(=O)CNC(C)(C)C)c(O)c2c1C[C@H]1C[C@H]3[C@H](N(C)C)C(O)=C(C(N)=O)C(=O)[C@@]3(O)C(O)=C1C2=O", "note": "[Tigecycline]", "values": [{"measurement": "Log Kill", "setting": "CRE (K. pneumoniae)", "value": 8, "unit": "Log"}, {"measurement": "Time to Zero", "setting": "CRE (K. pneumoniae)", "value": 24, "unit": "h"}]}, {"compound": "Colistin", "values": [{"measurement": "rebound of bacteria population", "setting": "CRE (E. coli)", "value": "completely rebounded"}]}, {"compound": "CC(=O)NC[C@H]1CN(c2ccc(N3CCOCC3)c(F)c2)C(=O)O1", "note": "[Linezolid]", "values": [{"measurement": "Log Kill", "setting": "S. aureus (VISA)", "value": 0.5, "unit": "Log"}]}, {"compound": "O=C(O)c1cn(C2CC2)c2cc(N3CCNCC3)c(F)cc2c1=O", "note": "[Cyproflaxin]", "values": [{"measurement": "Log Kill", "setting": "B. cereus (ATCC 14579)", "value": 0.5, "unit": "Log"}]}]}
